Experimental findings from US9433663B2, “Mobilization of hematopoietic stem cells” (Children's Hospital Medical Center, priority 2008, dated 2016) are described below.

Test [1] relates to other Rho GTPases and Ras. The test can be described thus: Example 7 effector pull-down in LDBM and HCB cells, other Rho GTPases and Ras. The test is classed as cell-based, murine LDBM and human HCB cells. On the procedure:
To exclude the inhibitory effect of CASIN on other Rac isoforms, Rho GTPases, and Ras, broader effector pull-down experiments are performed on these possible candidates with gradient doses of CASIN in LDBM and HCB cells as previously described. In addition, CASIN has been indicated as a noncovalent and reversible inhibitor in Xenopus egg extract. To confirm it, reversibility is monitored in this set of effector pull-down experiments. Four treatment groups are divided for both LDBM and HCB cells: (1) Serum starvation 20 h; (2) Serum starvation 20 h+growth factors stimulation; (3) Serum starvation 20 h+CASIN treatment (doses: 1, 2.5, 5, and 10 μM) 3 h+growth factor stimulation; (4) Serum starvation 20 h+CASIN treatment (doses: 1, 2.5, 5, and 10 μM) 3 h+wash the cells, and culture for another 3 h for recovery+growth factors stimulation. […] Bound proteins are analyzed by immunoblotting with respective antibodies (BD Biosciences). Furthermore, changes of downstream targets of Cdc42, Rac, and Rho under the four treatment groups are assessed. Phosphorylation status of PAK1, WASP (effectors of Cdc42), WAVE (effector of Rac), and ROCK (effector of Rho) are monitored by western blots using respective antibodies.

Test [2] deals with human CD34^+ umbilical cord blood cells. The test can be described thus: adhesion of human CD34+ HCB cells. The conditions noted are these: 5 μM. The test is classed as cell-based. As to the method: FIG. 4B. Relative adhesion of CD34^+ HCB cells in the presence of CASIN at dose of 5 μM in comparison to that of control.
To begin to study potential utility of CASIN in human hematopoietic stem cell mobilization, a series of cellular assays were carried out to determine the effects on human CD34^+ umbilical cord blood cells (HCBs). […] The effects of CASIN on human hematopoietic cell mobilization was therefore tested using a well established preclinical in vivo model (NOD/SCID-Hcb) of human hematopoietic function, where fresh CD34^+ hCB cells were transplanted into sub-lethally irradiated NOD/SCIDs by intrafemoral injection, and repopulated and maintained human hematopoietic reconstitution in the bone marrow of NOD/SCID recipient mice (FIG. 9b, FIG. 11) (Larochelle, A. et al. Nat Med 2, 1329-1337 (1996); Bhatia, M., et al. Proc Natl Acad Sci USA 94, 5320-5325 (1997)). Intravenous injections of CASIN were applied when human cells were well engrafted in the NOD/SCID recipients.

The next test concerns C57Bl/6 mice. Briefly: Example 7 PK/PD analysis of HPC mobilization in C57Bl/6 mice. The test is classed as in vivo. As to the method: The mice are i.p. administered with CASIN at 6 different doses (0.5, 1.0, 2.5, 5.0, 7.5, and 10 mg/Kg), and ˜1 ml blood are collected by cardiac puncture for PD and PK analysis predosing, 6, 12, 24, 36, 48, 60, and 72 h postdosing. 5 mice are used for each group. To do PK analysis, concentrations of CASIN in plasma are determined by high-pressure liquid chromatography (HPLC) with electrochemical detection, and then all compartmental and noncompartmental analyses are performed using WinNonlin Professional (version 2.0) software (Pharsight, Cary, N.C.). The maximum drug concentration in serum (Cmax) and the time to Cmax are determined directly from the concentration-time curves. Terminal elimination half-life is determined by linear regression of the log-transformed final concentration-time points. As for the PD analysis, the effects of CASIN on mobilization of CFU-GM, CFU-GEMM, BFU-E and CFU-E to the blood of C57Bl/6 mice are evaluated. By using the rest of blood, assays for CFU-GM, CFU-GEMM, BFU-E and CFU-E are performed using ingredients and cytokine combinations, and then the plot of CFU number versus time across the dose groups is drawn. In this way, the optimal dose and time for mobilization in C57Bl/6 mice are determined. […]

The test system of a further test is LDBM cells. Briefly: CFU-migration assay of LDBM progenitors towards SDF-1α. The class given is cell-based, murine. From the text:
To shed light on potential roles of CASIN in HSPC mobilization, the effects of CASIN on Cdc42-related cellular functions was studied, including adhesion, migration, and F-actin polymerization of progenitor cells in 32D myeloid progenitors. […] SDF-1α stimulation causes a reorganization of F-actin into a cortical ring around the cells. […] Thirdly, to gain further insight into cellular specificity and efficacy of CASIN, and also to rule out possible toxic effects by CASIN, Cdc42-involved BM progenitor cell functions were examined, including proliferation, adhesion, migration, and F-actin polymerization, in Cdc42^+/+ cells in parallel with Cdc42^−/− cells. In line with additional studies in a Cdc42 conditional knockout mouse model as described herein, Cdc42^−/− LDBM cells have increased CFU-forming progenitors compared to those of Cdc42^+/+.
Murine LDBM cells from Cdc42^+/+ as well as Cdc42^−/− mice were used for CFU-adhesion/migration experiments as described previously. Briefly, for adhesion experiment, in the presence or absence of prior CASIN treatment at doses of 5 and 10 μM, 10^5 cells were plated onto each well of 48-well plates pre-coated with fibronectin fragment CH296, which contains integrin α4β1-binding site. Adherent cells then were harvested by cells dissociation buffer (Gibco, Carlsbad, Calif.), and further plated in CFU assay. […]

For `OCCNC1CCCc2c1[nH]c1ccc(-c3ccccc3)cc21` (centres unmarked) [CASIN], in test [1], the “activities of other Rho GTPases and Ras” value is reported as “without affecting”. The “adhesion activity of human progenitors” value in test [2] is “significantly dampened”. Besides, the “mobilization after multiple injections one half-life time apart” value in the test on C57Bl/6 mice (C57/B16) was “stronger mobilization effects than that of single CASIN injection”. For the same compound, the “mobilization of HPCs (colony numbers versus dose)” value in the test on C57Bl/6 mice (single i.p. dose, C57Bl/6 mice) is “dose-dependent pattern”. Further, in the test with LDBM cells, the “directional migration capacity of Cdc42^−/− cells” value is “did not affect”.
